For one experiment, the target named is T1, HDAC1 (Homo sapiens, UniProt Q13547).
T1 construct: purchased BPS Bioscience (assay run by Nanosyn) 50061
As to the kind of experiment: HDAC1 fluorogenic assay (BPS Bioscience 50061, run by Nanosyn). The note with it: for IC50: cell‐free fluorogenic assay, duplicate, errors are SEMs. It counts as biochemical.

Experiment [1] has as its system MV4;11 cells. Nature of the experiment: alamarBlue cell metabolism/viability assay, MV4;11. The note with it: for IC50: at least triplicate, errors are SEMs. It counts as cell-based, human. The source says:
(§1) As described previously, MOLM14 and MV4;11 cell lines (both human AML cell lines harboring both mixed‐lineage‐leukemia (KMT2A) rearrangement and FLT3‐ITD mutations) were obtained from DSMZ (Branschweig, DEU) and ATCC (Manassas, VA), respectively (Goodis et al. [2024]; Moses et al. [2021]); MV4;11 BCL‐2 over‐expressing (OE) cells were generated via lentiviral transduction as described previously (Empty Vector AddGene #227688; BLC‐2 OE AddGene #227690) (Goodis et al. [2024]).
(§2) Cell lines were cultured in RPMI 1640 media (Cellgro, # MDT‐10‐040‐CV) containing 10% fetal bovine serum (Gemini BioProducts #100‐106) and passaged twice per week to maintain cultures in log‐phase‐growth. Upon receipt or derivation, cell lines were expanded and multiple aliquots cryopreserved in DMSO‐containing medium in the vapor phase of liquid nitrogen. Cells were genetically authenticated and confirmed to be mycoplasma‐negative before cryopreservation. Cells from a given cryopreserved aliquot were cultured for no more than 3–4 months.
(§3) AnnV/7AAD assays were assessed by flow cytometry and analyzed using FlowLogic software v8.7.
(§4) Our dual inhibitors were next evaluated in an alamarBlue^TM cell metabolism/viability assay against 3 human AML cell lines: MOLM14, MV4;11, and MV4;11 BCL‐2 overexpressing (OE). […] However, pleasingly, several of our top compounds based on the cell‐free assay results also performed well in the AML cell‐based metabolism/viability assays.

The next experiment addresses T2, HDAC6 (Homo sapiens, UniProt Q9UBN7).
T2 sequence (Q9UBN7 1-1215): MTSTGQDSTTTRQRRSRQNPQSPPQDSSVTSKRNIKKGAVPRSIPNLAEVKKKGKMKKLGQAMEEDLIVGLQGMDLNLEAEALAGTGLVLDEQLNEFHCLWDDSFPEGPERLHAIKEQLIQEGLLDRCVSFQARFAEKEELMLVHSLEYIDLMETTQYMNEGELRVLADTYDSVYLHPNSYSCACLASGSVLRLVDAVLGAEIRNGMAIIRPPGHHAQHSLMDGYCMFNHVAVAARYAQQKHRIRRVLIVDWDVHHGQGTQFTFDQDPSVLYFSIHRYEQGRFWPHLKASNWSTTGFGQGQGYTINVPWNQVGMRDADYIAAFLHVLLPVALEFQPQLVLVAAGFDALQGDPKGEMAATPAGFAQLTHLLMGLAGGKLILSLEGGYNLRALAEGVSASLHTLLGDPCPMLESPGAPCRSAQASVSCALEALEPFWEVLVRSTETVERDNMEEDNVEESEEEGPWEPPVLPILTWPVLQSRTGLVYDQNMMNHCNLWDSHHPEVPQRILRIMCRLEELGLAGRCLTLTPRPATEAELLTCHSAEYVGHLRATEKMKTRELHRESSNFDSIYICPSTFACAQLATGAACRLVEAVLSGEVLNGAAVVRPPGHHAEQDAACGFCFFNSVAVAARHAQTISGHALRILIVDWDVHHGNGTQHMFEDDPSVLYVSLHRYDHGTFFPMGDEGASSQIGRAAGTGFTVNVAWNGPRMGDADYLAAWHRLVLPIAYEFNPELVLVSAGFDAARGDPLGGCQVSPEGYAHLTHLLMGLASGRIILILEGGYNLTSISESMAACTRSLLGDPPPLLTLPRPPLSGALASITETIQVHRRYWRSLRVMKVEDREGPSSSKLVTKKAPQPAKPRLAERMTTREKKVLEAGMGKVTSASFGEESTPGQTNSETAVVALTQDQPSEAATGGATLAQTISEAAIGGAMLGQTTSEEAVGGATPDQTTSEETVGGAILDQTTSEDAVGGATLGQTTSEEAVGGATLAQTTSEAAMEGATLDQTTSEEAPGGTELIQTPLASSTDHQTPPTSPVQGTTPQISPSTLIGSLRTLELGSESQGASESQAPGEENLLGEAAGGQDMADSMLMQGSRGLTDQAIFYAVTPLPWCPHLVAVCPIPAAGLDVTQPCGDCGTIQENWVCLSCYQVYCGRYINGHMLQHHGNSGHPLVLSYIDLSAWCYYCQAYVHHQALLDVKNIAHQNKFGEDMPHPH
As to the kind of experiment: HDAC6 fluorogenic assay (BPS Bioscience 50076, run by Nanosyn). The note with it: for selectivity for HDAC6 over HDAC1 (HDAC6/1 selectivity): ratio of IC50 values.

A further experiment has as its target T3, BCL‐2 (Homo sapiens, UniProt P10415).
T3 construct: purchased BPS Bioscience (assay run by Nanosyn) 50222
Nature of the experiment: BCL‐2 TR‐FRET assay (BPS Bioscience 50222, run by Nanosyn). It counts as binding. The following applies: cell‐free TR‐FRET assay, duplicate, errors are SEMs.

Experiment [2] relates to MV4;11 BCL‐2 over‐expressing (OE) cells. Nature of the experiment: alamarBlue cell metabolism/viability assay, MV4;11 BCL‐2 OE. The following applies: Homo sapiens. It counts as cell-based.
From the text: as §1, §2, §3, §4
A general note: The colour change of resazurin is a common sign of viable cells or microbes.

The subject of the next experiment is MOLM14 cells. Nature of the experiment: alamarBlue cell metabolism/viability assay, MOLM14. The note with it: Homo sapiens. In kind it is cell-based.
From the text: as §1, §2, §3, §4

Experiment [3] deals with MV4;11 cells. Nature of the experiment: Annexin V/7AAD apoptosis/death assay by flow cytometry. It counts as cell-based, human. The following applies: 200 nM; for viability at 0.2 µM: Homo sapiens, 48 h, MV4;11, in Figure 2, read-out: viable cells (AnnV‐/7AAD‐), lower left quadrant. The protocol: as §3
Figure 2 Apoptotic cell death of MV4;11 AML cells. […] As a negative control, an equi‐volume of DMSO‐treated sample was also assessed. Flow cytometric dot plots of 200 nM‐treated MV4;11 cells stained with Annexin‐V and 7AAD depict the gating strategy used to delineate viable cells (AnnV‐/7AAD‐), early apoptotic cells (AnnV+/7AAD‐), and late apoptotic cells (AnnV+/7AAD +).

The mark [4] stands for this setting: Homo sapiens, MV4-11, alamarBlue.
Where [5] appears, read: MV4-11, alamarBlue, at least triplicate, errors are SEMs, read-out: IC50 MV4;11 BCL‐2 OE.
[6] abbreviates: MOLM-14, at least triplicate, errors are SEMs, read-out: IC50 MOLM‐14.

The structures appear in SMILES notation. Values joined by “and” are separate entries in the source; they are usually repeats but may differ in a detail not shown here. Equal entries are not always repeated. Where two headings read alike, the source gives them in different places.

T3 sequence (P10415 whole entry): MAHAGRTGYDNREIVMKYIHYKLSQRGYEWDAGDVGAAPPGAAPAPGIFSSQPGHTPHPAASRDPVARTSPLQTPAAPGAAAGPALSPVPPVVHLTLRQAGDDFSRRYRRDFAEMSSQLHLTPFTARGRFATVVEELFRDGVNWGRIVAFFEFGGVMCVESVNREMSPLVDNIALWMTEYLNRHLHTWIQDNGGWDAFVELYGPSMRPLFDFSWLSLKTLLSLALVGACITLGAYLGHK
T1 sequence (Q13547 whole entry): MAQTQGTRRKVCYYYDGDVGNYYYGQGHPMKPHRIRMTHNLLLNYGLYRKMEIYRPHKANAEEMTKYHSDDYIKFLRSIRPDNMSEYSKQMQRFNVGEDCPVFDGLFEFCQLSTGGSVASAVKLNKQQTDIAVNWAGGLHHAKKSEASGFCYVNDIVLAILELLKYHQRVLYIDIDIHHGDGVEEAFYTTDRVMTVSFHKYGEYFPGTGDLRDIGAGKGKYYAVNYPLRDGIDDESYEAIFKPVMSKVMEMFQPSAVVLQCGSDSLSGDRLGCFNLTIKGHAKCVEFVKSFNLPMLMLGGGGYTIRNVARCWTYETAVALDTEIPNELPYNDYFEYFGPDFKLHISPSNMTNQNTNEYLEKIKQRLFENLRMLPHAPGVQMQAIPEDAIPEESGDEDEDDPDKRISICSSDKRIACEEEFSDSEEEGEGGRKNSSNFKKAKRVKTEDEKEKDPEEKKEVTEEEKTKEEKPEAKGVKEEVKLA

A word on the IC50: it is the concentration needed to halve the response being measured. As for `CC1(C)CCC(CN2CCN(c3ccc(C(=O)NS(=O)(=O)c4ccc(NCCNc5ncc(C(=O)NO)cn5)c([N+](=O)[O-])c4)c(Oc4cnc5[nH]ccc5c4)c3)CC2)=C(c2ccc(Cl)cc2)C1` [BD‐4‐208, 2‐((2‐((4‐(N‐(2‐((1H‐pyrrolo[2,3‐b]pyridin‐5‐yl)oxy)‐4‐(4‐((4′‐chloro‐5,5‐dimethyl‐3,4,5,6‐tetrahydro‐[1,1′‐biphenyl]‐2‐yl)methyl)piperazin‐1‐yl)benzoyl)sulfamoyl)‐2‐nitrophenyl)amino)ethyl)amino)‐N‐hydroxypyrimidine‐5‐carboxamide], the IC50 was 463 ± 60 nM on HDAC1, above 10000 nM in the experiment with MV4;11 cells [1] (setting [4]) and 149 ± 20 nM against HDAC6. Moreover, the “selectivity for HDAC6 over HDAC1 (HDAC6/1 selectivity)” value (shortened to “selectivity for HDAC6 over HDAC1”) on HDAC6 is listed as ~ 3 fold.
As to `CC1(C)CCC(CN2CCN(c3ccc(C(=O)NS(=O)(=O)c4ccc(NCC5CCN(c6ccc(C(=O)NO)cc6)CC5)c([N+](=O)[O-])c4)c(Oc4cnc5[nH]ccc5c4)c3)CC2)=C(c2ccc(Cl)cc2)C1` [AMC‐4‐154, 2‐((1H‐pyrrolo[2,3‐b]pyridin‐5‐yl)oxy)‐4‐(4‐((4′‐chloro‐5,5‐dimethyl‐3,4,5,6‐tetrahydro‐[1,1′‐biphenyl]‐2‐yl)methyl)piperazin‐1‐yl)‐N‐((4‐(((1‐(4‐(hydroxycarbamoyl)phenyl)piperidin‐4‐yl)methyl)amino)‐3‐nitrophenyl)sulfonyl)benzamide], the IC50 on HDAC1 was above 30000 nM; against BCL‐2 it was 0.554 ± 0.045 nM; in the experiment on MV4;11 cells [1] (setting [4]) it was 66.2 ± 13.6 nM; in experiment [2] (setting [5]), 631 ± 50 nM; in the experiment with MOLM14 cells (setting [6]), above 10000 nM; at HDAC6, 8710 ± 1890 nM. Further, in the experiment with MV4;11 cells [3] (MV4;11), the “induction of apoptosis compared with venetoclax” value is “induced apoptosis similar to venetoclax”. In addition, the viability at 0.2 µM in the experiment on MV4;11 cells [3] is 49.2%. The “selectivity for HDAC6 over HDAC1” value on HDAC6 was above 3 fold.
For `CC1(C)CCC(CN2CCN(c3ccc(C(=O)NS(=O)(=O)c4ccc(NCC5CCOCC5)c([N+](=O)[O-])c4)c(Oc4cnc5[nH]ccc5c4)c3)CC2)=C(c2ccc(Cl)cc2)C1` [Venetoclax, venetoclax, reference compound], the IC50 against HDAC1 is above 30000 nM; in the experiment on MV4;11 cells [1] (setting [4]), 82 nM; in the experiment with MV4;11 cells [1] (alamarBlue), 82.8 ± 16.7 nM; in experiment [2] (setting [5]), 1020 ± 177 nM; in experiment [2] (MV4-11, alamarBlue, read-out: IC50 MV4;11 OE BCL‐2 cell line) it was 1000 nM; with MOLM14 cells (setting [6]) it was 1720 ± 59 nM. For the same compound, the IC50 was 1700 nM with MOLM14 cells (MOLM-14, read-out: IC50 MOLM14 cells) and above 30000 nM at HDAC6. The “decrease in % AnnV‐/7AAD‐ (viable) cells” value in the experiment on MV4;11 cells [3] (MV4;11) is given as ~ 50%. The viability at 0.2 µM with MV4;11 cells [3] turned out to be 49.4%.
Turning to `CC1(C)CCC(CN2CCN(c3ccc(C(=O)NS(=O)(=O)c4ccc(NCCNC(=O)c5ccc(/C=C/C(=O)NO)cc5)c([N+](=O)[O-])c4)c(Oc4cnc5[nH]ccc5c4)c3)CC2)=C(c2ccc(Cl)cc2)C1` [SF‐8‐062, (E)‐2‐((1H‐pyrrolo[2,3‐b]pyridin‐5‐yl)oxy)‐4‐(4‐((4′‐chloro‐5,5‐dimethyl‐3,4,5,6‐tetrahydro‐[1,1′‐biphenyl]‐2‐yl)methyl)piperazin‐1‐yl)‐N‐((4‐((2‐(4‐(3‐(hydroxyamino)‐3‐oxoprop‐1‐en‐1‐yl)benzamido)ethyl)amino)‐3‐nitrophenyl)sulfonyl)benzamide], the IC50 on HDAC1 was 6140 ± 1240 nM; in the experiment on MV4;11 cells [1] (setting [4]), above 10000 nM. Also, the “selectivity for HDAC6 over HDAC1” value on HDAC6 is “about 20 fold”.
As for `CC1(C)CCC(CN2CCN(c3ccc(C(=O)NS(=O)(=O)c4ccc(NCc5ccc(C(=O)Nc6ccccc6N)cc5)c([N+](=O)[O-])c4)c(Oc4cnc5[nH]ccc5c4)c3)CC2)=C(c2ccc(Cl)cc2)C1` [BD‐4‐213, 2‐((1H‐pyrrolo[2,3‐b]pyridin‐5‐yl)oxy)‐N‐((4‐((4‐((2‐aminophenyl)carbamoyl)benzyl)amino)‐3‐nitrophenyl)sulfonyl)‐4‐(4‐((4′‐chloro‐5,5‐dimethyl‐3,4,5,6‐tetrahydro‐[1,1′‐biphenyl]‐2‐yl)methyl)piperazin‐1‐yl)benzamide], the IC50 at HDAC1 was 2880 ± 570 nM; at BCL‐2 it was < 1 nM and 0.539 nM; in the experiment with MV4;11 cells [1] (setting [4]), 19.3 ± 5.6 nM; in experiment [2] (setting [5]) it was 342 ± 55 nM; in the experiment on MOLM14 cells (setting [6]) it was 1630 ± 36 nM; on HDAC6, above 30000 nM. For the same compound, on HDAC1 (ratio of IC50 values), the “selectivity for HDAC1 over HDAC6” value is above 10 fold. For the same compound, in the experiment with MV4;11 cells [3] (MV4;11), the “induction of apoptosis compared with venetoclax” value is on record as “induced apoptosis similar to venetoclax”. Also, in the experiment on MV4;11 cells [3], the viability at 0.2 µM was found to be 43.9%.
For the compound `CC1(C)CCC(CN2CCN(c3ccc(C(=O)NS(=O)(=O)c4ccc(NCCNC(=O)c5ccc(C(=O)NO)cc5)c([N+](=O)[O-])c4)c(Oc4cnc5[nH]ccc5c4)c3)CC2)=C(c2ccc(Cl)cc2)C1` [SF‐8‐083, N ^1‐(2‐((4‐(N‐(2‐((1H‐pyrrolo[2,3‐b]pyridin‐5‐yl)oxy)‐4‐(4‐((4′‐chloro‐5,5‐dimethyl‐3,4,5,6‐tetrahydro‐[1,1′‐biphenyl]‐2‐yl)methyl)piperazin‐1‐yl)benzoyl)sulfamoyl)‐2‐nitrophenyl)amino)ethyl)‐N ^4‐hydroxyterephthalamide], the IC50 is 11600 ± 1760 nM on HDAC1, above 10000 nM in the experiment with MV4;11 cells [1] (setting [4]) and 418 ± 34 nM against HDAC6. On HDAC6, the “selectivity for HDAC6 over HDAC1” value was ~ 30 fold.
For the compound `CC1(C)CCC(CN2CCN(c3ccc(C(=O)NS(=O)(=O)c4ccc(NCc5ccc(C(=O)NO)cc5)c([N+](=O)[O-])c4)c(Oc4cnc5[nH]ccc5c4)c3)CC2)=C(c2ccc(Cl)cc2)C1` [SF‐8‐038, 2‐((1H‐pyrrolo[2,3‐b]pyridin‐5‐yl)oxy)‐4‐(4‐((4′‐chloro‐5,5‐dimethyl‐3,4,5,6‐tetrahydro‐[1,1′‐biphenyl]‐2‐yl)methyl)piperazin‐1‐yl)‐N‐((4‐((4‐(hydroxycarbamoyl)benzyl)amino)‐3‐nitrophenyl)sulfonyl)benzamide], the IC50 against HDAC1 was above 30000 nM; at BCL‐2 it was < 1 nM and 0.617 nM; with MV4;11 cells [1] (setting [4]), 285 ± 81 nM; in experiment [2] (setting [5]), 2450 ± 96 nM; in the experiment on MOLM14 cells (setting [6]), above 10000 nM; on HDAC6, 368 ± 85 nM. Also, the “fold less active than venetoclax, MV4;11 cell metabolism/viability” value in the experiment on MV4;11 cells [1] (IC50 compared with venetoclax) is ~ 3 fold. For the same compound, in the experiment on MV4;11 cells [3] (MV4;11), the “induction of apoptosis compared with venetoclax” value is “somewhat less potent”. In addition, the viability at 0.2 µM with MV4;11 cells [3] turned out to be 58.5%. In addition, the “selectivity for HDAC6 over HDAC1” value at HDAC6 was above 80 fold.

The record behind these values is PMC12079163 (Drug Development Research, 2025).
